Data from ChEMBL document CHEMBL1201862, “PubChem BioAssay data set” (2004).
Active and inactive are the calls of the source.

Experiments:
Kallikrein-7 = Kallikrein-7 (Homo sapiens, UniProt P49862); test: Fluorescence Intensity-based biochemical primary high throughput dose response assay to identify activators of kallikrein-7 (K7) zymogen.
[1] = growth suppression of PTEN-null colon cells, dose response, cell-based, HCT116 PTEN knockout (AID 1047); format: functional;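 note: HCT116 colon tumor cells with PTEN knocked out; cells exposed to compound for 60 hours before readout; potency for loss of cell viability measured by luminescence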
[2] = growth suppression of beta-catenin-knockout colon cells, dose response, cell-based, HCT116, human colon tumor (AID 1045); format: functional;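 note: HCT116 colon tumor cells with beta catenin knocked out; cells exposed to compound for 60 hours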
Ephrin type-A receptor 4 = Ephrin type-A receptor 4 (Mus musculus, UniProt Q03137); test: inhibitors of EphA4 binding to KYL peptide, primary screen, biochemical, colorimetric, mouse EphA4 (AID 689); format: functional
Caspase-6 = Caspase-6 (Homo sapiens, UniProt P55212); test: human caspase-6 inhibitors, dose response, biochemical, VEID-R110 fluorescence, cherry-pick (AID 720632)
[3] = target: T1, Zinc finger protein mex-5 (Caenorhabditis elegans, UniProt Q9XUB2); test: MEX-5/TCR-2 RNA interaction inhibitors, dose response, biochemical, C. elegans, fluorescence polarization (AID 1960)
T1 sequence (Q9XUB2 whole entry): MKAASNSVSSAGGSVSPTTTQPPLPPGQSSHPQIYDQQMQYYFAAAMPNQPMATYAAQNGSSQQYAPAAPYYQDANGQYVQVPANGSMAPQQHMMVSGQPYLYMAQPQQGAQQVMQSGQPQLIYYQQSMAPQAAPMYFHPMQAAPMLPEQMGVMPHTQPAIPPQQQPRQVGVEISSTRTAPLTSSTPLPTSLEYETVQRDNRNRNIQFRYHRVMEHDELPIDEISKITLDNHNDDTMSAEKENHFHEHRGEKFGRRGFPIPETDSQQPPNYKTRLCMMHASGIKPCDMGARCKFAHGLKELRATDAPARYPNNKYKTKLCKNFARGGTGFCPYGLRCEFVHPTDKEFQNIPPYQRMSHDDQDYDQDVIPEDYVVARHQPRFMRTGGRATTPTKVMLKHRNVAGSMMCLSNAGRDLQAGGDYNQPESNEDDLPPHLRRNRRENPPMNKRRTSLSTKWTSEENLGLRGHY

[4] = target: T2, RNA-binding protein pos-1 (Caenorhabditis elegans, UniProt G5EF15); test: inhibitors of POS-1/mex-3 RNA binding, dose response, biochemical, fluorescence polarization (AID 1964);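 note: purified POS-1 fused to maltose binding protein made in E. coli; potency of compounds blocking POS-1 binding to fluorescent RNA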
T2 sequence (G5EF15 whole entry): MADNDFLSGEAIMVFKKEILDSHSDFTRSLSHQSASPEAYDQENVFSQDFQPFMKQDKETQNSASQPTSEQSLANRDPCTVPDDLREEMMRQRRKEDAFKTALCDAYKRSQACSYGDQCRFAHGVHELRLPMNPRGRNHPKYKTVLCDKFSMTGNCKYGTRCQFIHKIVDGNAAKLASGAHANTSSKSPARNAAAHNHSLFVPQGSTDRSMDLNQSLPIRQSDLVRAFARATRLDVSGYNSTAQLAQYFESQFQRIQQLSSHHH

[5] = M. tuberculosis growth inhibition, HTS (AID 449762); format: functional
[6] = microbe, parasite or virus in culture; format: functional; settings: Mycobacterium tuberculosis
Cytochrome P450 3A4 = Cytochrome P450 3A4 (Homo sapiens, UniProt P08684); settings: Potency;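 note: confirmatory qHTS run detecting inhibitors and substrates of CYP3A4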
[7] = inhibitors of intracellular T. cruzi replication, confirmation, NIH3T3 host cells, beta-gal luminescence (AID 2044); format: functional, cell-based;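 note: intracellular parasites grown in NIH/3T3 mouse fibroblasts as host cells; luminescent beta-galactosidase reporter signal from transgenic T. cruzi replicating inside host cells; inhibitors lower the luminescence signal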
[8] = cytotoxicity toward NIH3T3 fibroblasts, dose response, counter-screen, cell-based, ATP luminescence, mouse fibroblasts (AID 2010); format: functional;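 note: cells exposed to compound for about 90 hours before reading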
cells [9] = test: cells
[10] = target: T3, Polyadenylate-binding protein 1 (Homo sapiens, UniProt P11940); test: PABP1 MLLE–PAM2 interaction inhibitors, dose response, miRNA deadenylation inhibitor project, biochemical, fluorescence polarization, Cy5-PAM2 peptide, secondary (AID 602260); format: functional; settings: read-out: IC50_Mean
Vero [11] = test: host cell cytotoxicity of antiviral hits, dose response, cytotoxicity control for West Nile virus antiviral project, secondary assay (AID 1650); format: functional; settings: Chlorocebus sabaeus
Nonstructural protein 1 = Nonstructural protein 1 (Influenza A virus, UniProt Q194T2); format: functional, Influenza A virus (A/California/07/2009(H1N1))
[12] = target: T3, Polyadenylate-binding protein 1; test: PABP1 MLLE–PAM2 binding inhibitor potency, dose response, biochemical, fluorescence polarization, FITC-PAM2 peptide (AID 602259); format: functional; settings: read-out: IC50_Mean
Vero [13] = test: cells; format: functional; settings: Chlorocebus sabaeus
Prothrombin = Prothrombin (Homo sapiens, UniProt P00734); test: Thrombin 1536 HTS Dose Response Confirmation. [Related pubchem assays: 1046 (Thrombin 1536 HTS; hits were confirmed in this assay)]; format: functional
[14] = M. tuberculosis H37Rv growth inhibitors, H37Rv strain (AID 1626); format: functional
[15] = target: T4, Orexin/Hypocretin receptor type 1 (Homo sapiens, UniProt O43613); test: (§1) Fluorescence-based cell-based high throughput dose response assay for antagonists of the orexin 1 receptor (OX1R; HCRTR1). [Related pubchem assays (depositor defined):AID434989, AID435008, AID463079, AID485270, AID492963, AID492964, AID492965, AID493232, AID504717, AID504718]; format: functional
T4 sequence (O43613 whole entry): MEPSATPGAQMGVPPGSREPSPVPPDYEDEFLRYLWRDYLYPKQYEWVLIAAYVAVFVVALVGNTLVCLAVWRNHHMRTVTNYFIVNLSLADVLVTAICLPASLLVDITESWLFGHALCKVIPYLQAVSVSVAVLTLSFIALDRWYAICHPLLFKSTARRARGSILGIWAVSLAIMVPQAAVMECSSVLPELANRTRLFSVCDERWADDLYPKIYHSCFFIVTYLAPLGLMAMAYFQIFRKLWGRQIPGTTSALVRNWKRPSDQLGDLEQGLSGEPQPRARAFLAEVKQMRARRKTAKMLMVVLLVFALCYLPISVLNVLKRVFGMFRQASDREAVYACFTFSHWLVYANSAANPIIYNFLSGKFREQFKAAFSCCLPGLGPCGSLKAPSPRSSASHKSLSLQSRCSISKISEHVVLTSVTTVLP

[16] = target: T4, Orexin/Hypocretin receptor type 1; test: as §1, with “Homogeneous Time Resolved Fluorescence (HTRF)-based” for “Fluorescence-based”; format: functional
[17] = (§2) Counterscreen for antagonists of the orexin 1 receptor (OX1R; HCRTR1): Fluorescence-based cell-based high throughput dose response assay to identify antagonists of the parental CHO cell line. [Related pubchem assays (depositor defined):AID434989, AID435008, AID463079, AID485270, AID492963, AID492964, AID492965, AID493232, AID504699, AID504701]; format: functional
CHO-K1 = test: as §2, with “Homogeneous time resolved fluorescence (HTRF)-based” for “Fluorescence-based”, “cell-based” for “cell-based high throughput”, “CHO-K1” for “CHO”; format: functional; settings: Cricetulus griseus;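 note: potency for inhibition of ATP-stimulated IP1 production as antagonists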
cells [18] = test: cells; remark: listed apart in the source
[19] = target: T5, Oxysterols receptor LXR-beta (Homo sapiens, UniProt P55055); format: functional, cell-based;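 note: Cell-based luminescence dose-response assay of agonist activity at LXR, run as a confirmatory counterscreen to a daf-12 agonist screen; HEK293 cells with Gal4-LXR fusion and GAL4-driven luciferase reporter; agonist potency from rising luciferase signal of a Gal4-LXR reporter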
T5 sequence (P55055 whole entry): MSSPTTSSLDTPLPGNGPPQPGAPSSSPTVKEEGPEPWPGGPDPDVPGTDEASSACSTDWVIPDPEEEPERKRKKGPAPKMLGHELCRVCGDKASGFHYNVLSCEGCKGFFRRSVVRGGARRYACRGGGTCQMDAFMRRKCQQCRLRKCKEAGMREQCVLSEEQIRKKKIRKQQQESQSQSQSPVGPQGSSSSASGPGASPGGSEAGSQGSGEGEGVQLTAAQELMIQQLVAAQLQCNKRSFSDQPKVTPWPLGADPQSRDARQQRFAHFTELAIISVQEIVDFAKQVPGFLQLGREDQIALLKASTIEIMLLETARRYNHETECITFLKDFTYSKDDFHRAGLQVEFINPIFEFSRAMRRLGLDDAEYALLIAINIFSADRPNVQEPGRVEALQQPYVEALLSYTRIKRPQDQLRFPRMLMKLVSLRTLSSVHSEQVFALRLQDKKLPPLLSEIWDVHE

Orexin receptor type 2 [20] = target: T6, Orexin receptor type 2 (Homo sapiens, UniProt O43614); test: Counterscreen assay for antagonists of the orexin 1 receptor (OX1R; HCRTR1): Fluorescence-based cell-based dose response assay for antagonists of the orexin 2 receptor (OX2R; HCRTR2), run by assay provider.; format: functional
T6 sequence (O43614 whole entry): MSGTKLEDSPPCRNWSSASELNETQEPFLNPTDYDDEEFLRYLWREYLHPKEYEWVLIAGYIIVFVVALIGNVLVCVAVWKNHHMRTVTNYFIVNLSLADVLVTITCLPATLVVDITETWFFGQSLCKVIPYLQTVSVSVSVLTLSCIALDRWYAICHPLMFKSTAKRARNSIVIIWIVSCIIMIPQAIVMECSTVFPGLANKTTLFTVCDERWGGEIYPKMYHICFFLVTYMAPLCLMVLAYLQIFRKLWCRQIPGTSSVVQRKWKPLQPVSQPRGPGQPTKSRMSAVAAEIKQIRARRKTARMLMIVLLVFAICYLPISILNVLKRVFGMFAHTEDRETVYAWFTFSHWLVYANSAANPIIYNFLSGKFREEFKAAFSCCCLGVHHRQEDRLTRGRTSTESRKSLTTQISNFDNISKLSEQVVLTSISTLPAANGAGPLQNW

Orexin receptor type 2 [21] = target: T6, Orexin receptor type 2; test: Counterscreen assay for antagonists of the orexin 1 receptor (OX1R; HCRTR1): Homogeneous Time Resolved Fluorescence (HTRF)-based cell-based dose response assay for antagonists of the orexin 2 receptor (OX2R; HCRTR2), run by assay provider.; format: functional
Streptococcus = test: Group A Streptococcus viability loss, dose response, counter-screen for streptokinase expression inhibitor project, luminescence, BacTiterGlo (AID 1915); format: functional, organism-based;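 note: potency for reduction of bacterial viability or growth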
[22] = test system: Streptococcus sp. 'group A'; test: growth inhibition of control SK(-) GAS strain, dose response, counter-screen for streptokinase expression inhibitor project, luminescence, kanamycin, BacTiterGlo, confirmation (AID 1900); format: functional, organism-based
[23] = A cytotoxicity screen of small molecule inhibitors of the PhoP region in Salmonella typhi identified in the primary screen. [Related pubchem assays: 1850, 1864, 1985 ]; format: functional
[24] = Luminescence-based dose response cell-based high throughput screening assay for cytotoxic compounds using the IEC-6 intestinal epithelial cell line. [Related pubchem assays: 1858 (Summary AID.), 1825 (Counterscreen.), 1907 (Confirmation screen.)]; format: functional
[25] = cytotoxicity in HEK-293T cells, dose response, cytotoxicity control for BCR NF-kB inhibitor project, luminescence, B-cell screen hits (AID 489021); format: functional, cell-based;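 note: HEK-293T cells carrying an NF-kB luciferase reporter; cells exposed to compound for about 14 hours before viability readout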
[26] = inhibitors of Vif binding to APOBEC3G peptide, primary screen, biochemical, TR-FRET, GST-Vif 1-94, biotin-A3G peptide, dose response retest (AID 1117319); format: functional;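 note: TR-FRET signal of purified GST-Vif binding a biotinylated A3G peptide; inhibitors lower the FRET signal by blocking Vif and A3G binding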

Sequence of Ephrin type-A receptor 4 (Q03137 whole entry): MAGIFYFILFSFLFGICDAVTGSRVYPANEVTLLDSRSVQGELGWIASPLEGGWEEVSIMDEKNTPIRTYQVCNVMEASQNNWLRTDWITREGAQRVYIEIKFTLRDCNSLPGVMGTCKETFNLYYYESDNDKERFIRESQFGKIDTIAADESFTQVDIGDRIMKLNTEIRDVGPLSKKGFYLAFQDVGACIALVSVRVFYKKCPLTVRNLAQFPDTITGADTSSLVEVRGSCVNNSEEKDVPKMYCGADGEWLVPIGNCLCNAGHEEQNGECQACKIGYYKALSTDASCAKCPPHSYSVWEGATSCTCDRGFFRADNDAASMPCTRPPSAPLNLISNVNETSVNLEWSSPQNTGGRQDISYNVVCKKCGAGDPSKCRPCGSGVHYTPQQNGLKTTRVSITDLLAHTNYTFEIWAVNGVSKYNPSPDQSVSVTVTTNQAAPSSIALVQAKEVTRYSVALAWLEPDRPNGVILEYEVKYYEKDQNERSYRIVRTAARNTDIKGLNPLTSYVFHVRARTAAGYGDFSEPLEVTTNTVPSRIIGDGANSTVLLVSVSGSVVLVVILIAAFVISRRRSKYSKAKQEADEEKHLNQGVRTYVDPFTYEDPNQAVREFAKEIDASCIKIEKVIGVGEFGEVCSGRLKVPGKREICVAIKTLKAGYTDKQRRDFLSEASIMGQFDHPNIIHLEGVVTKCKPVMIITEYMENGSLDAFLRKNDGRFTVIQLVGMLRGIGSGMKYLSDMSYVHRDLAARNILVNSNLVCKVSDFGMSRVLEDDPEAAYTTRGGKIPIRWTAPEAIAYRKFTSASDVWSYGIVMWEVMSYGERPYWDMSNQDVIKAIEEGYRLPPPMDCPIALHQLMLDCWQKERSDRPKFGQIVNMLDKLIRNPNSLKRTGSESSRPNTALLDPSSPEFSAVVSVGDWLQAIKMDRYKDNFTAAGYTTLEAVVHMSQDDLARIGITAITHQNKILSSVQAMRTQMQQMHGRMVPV
Sequence of Kallikrein-7 (P49862 whole entry): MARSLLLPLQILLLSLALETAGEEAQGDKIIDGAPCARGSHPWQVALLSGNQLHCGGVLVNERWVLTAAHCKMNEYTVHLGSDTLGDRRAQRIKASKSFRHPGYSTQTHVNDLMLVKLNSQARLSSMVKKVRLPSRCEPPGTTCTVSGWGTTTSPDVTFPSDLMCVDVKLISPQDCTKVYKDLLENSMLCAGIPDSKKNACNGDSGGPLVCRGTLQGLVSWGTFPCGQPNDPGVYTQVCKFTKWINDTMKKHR
T3 sequence (P11940 whole entry): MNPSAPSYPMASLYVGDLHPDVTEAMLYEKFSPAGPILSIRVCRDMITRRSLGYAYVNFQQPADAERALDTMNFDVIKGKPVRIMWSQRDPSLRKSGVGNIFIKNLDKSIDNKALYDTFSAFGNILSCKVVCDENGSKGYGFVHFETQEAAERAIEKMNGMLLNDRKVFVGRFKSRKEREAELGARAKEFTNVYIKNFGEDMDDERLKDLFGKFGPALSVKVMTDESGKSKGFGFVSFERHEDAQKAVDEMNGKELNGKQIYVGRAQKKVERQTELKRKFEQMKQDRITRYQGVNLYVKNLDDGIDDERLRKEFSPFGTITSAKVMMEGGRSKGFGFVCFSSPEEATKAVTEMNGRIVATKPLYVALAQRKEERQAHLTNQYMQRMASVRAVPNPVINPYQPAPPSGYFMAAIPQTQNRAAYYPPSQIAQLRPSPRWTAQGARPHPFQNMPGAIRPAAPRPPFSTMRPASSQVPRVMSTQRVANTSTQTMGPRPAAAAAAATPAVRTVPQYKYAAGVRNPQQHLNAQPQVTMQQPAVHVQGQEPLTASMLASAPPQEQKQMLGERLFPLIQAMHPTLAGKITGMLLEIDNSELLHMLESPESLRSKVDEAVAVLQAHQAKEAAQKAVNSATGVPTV
Sequence of Caspase-6 (P55212 24-179 limits assumed): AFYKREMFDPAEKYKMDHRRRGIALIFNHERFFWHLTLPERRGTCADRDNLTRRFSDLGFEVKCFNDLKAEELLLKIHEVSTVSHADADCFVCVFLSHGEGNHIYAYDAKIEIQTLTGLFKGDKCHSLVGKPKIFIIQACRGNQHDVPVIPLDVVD
Sequence of Caspase-6 (P55212 194-293 limits assumed): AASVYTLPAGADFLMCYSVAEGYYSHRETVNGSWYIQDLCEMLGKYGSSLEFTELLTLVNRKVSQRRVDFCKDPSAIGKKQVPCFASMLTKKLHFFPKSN
Sequence of Nonstructural protein 1 (Q194T2 whole entry): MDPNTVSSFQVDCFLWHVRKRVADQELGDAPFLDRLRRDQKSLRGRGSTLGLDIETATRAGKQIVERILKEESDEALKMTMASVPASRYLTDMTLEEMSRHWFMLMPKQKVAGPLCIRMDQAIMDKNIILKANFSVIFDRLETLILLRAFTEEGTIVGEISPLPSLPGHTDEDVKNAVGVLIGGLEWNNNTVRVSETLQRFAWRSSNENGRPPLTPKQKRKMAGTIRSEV
Sequence of Cytochrome P450 3A4 (P08684 whole entry): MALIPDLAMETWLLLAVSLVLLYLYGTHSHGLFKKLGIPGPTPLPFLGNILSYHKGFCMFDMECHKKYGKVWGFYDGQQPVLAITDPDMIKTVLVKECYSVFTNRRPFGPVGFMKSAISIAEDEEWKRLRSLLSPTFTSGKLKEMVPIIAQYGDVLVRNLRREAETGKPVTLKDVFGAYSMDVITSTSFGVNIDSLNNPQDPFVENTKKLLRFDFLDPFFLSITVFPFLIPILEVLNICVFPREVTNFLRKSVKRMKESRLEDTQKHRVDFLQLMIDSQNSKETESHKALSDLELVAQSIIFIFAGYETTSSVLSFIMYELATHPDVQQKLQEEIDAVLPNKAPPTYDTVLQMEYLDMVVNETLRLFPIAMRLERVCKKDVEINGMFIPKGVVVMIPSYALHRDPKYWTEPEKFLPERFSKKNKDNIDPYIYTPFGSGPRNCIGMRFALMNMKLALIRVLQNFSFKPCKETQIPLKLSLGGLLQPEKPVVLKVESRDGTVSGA

COCCNC(=O)/C(C#N)=C/c1c(N2CCN(c3ccc(OC)cc3)CC2)nc2c(C)cccn2c1=O
EC50 (Kallikrein-7): > 69.5 µM (inactive)

O=C(Nc1cccc2c1CCCC2)c1cc([N+](=O)[O-])ccc1Cl
EC50 [1]: 7.64 µM (active)
EC50 [2]: 6.84 µM (active)
IC50 (Ephrin type-A receptor 4): > 100 µM (not active)

CCOc1cc(N2CCOCC2)c(OCC)cc1NC(C)C(=O)N1CCN(CC)CC1 (stereo not drawn)
AC50 (Caspase-6): 46.7 µM (active)
EC50 [3]: > 300 µM (inconclusive)
EC50 [4]: 82.7 µM (active)

COC(=O)c1cccc(C#CC(NP(=O)(c2ccccc2)c2ccccc2)c2ccccc2)c1 (stereo not drawn)
IC50 [5]: > 100 µM (active)
CC50 [6]: > 40 µM (active)
AC50 (Cytochrome P450 3A4): 12.6 µM (inconclusive)

CCCOc1ccc(-c2nn(-c3ccccc3)cc2/C=C2\SC(=S)N(C3CCS(=O)(=O)C3)C2=O)cc1 (stereo not drawn)
IC50 (Ephrin type-A receptor 4): 12 µM (active)

O=C(c1cc([N+](=O)[O-])cc([N+](=O)[O-])c1)N1CCCc2ccccc21
EC50 [7]: < 0.1 µM (active)
EC50 [8]: > 60 µM (not active)
EC50 (cells [9]): 0.203 µM (active)

CCC(C)C(=O)N1c2ccccc2C(=C2SC(C(=O)OC)=C(C(=O)OC)S2)C(=S)C1(C)C (stereo not drawn)
IC50 [10]: > 66 µM (inactive)
CC50 (Vero [11]): > 100 µM (active)
IC50 (Nonstructural protein 1): 17.7 µM (active)
IC50 [12]: > 66 µM (inactive)
CC50 (Vero [13]): 21.6 µM (active)

CN(CC1CCCN(CCc2cccc(C(F)(F)F)c2)C1)C(=O)c1ccco1 (stereo not drawn)
EC50 [7]: < 0.1 µM (active)
EC50 [8]: > 60 µM (not active)
EC50 (cells [9]): 0.587 µM (active)

CSc1nc(-c2ccccc2)nn1C(=O)c1ccc(C)cc1
IC50 (Prothrombin): 0.028 µM (active)

CCOC(=O)c1ccc(NC(=O)CSc2nnc(COc3ccccc3OC)n2C)cc1
IC50 [14]: > 100 µM (active)

Nn1c(-c2cccs2)nc2sc3c(c2c1=O)CCCC3
IC50 [15]: 18.1 µM (inactive)
IC50 [16]: 2.98 µM (active)
IC50 [17]: > 49.7 µM (inactive)
IC50 (CHO-K1): > 66.2 µM (inactive)
EC50 (cells [18]): > 67.5 µM (inactive)
EC50 [19]: > 67.5 µM (inactive)
IC50 (Orexin receptor type 2 [20]): 31.2 µM (inactive)
IC50 (Orexin receptor type 2 [21]): > 50 µM (inactive)

CCC(=O)n1nc(-c2ccc(Cl)cc2)nc1NCc1ccccc1
IC50 (Prothrombin): 1.75 µM (active)

Cc1ccc(S(=O)(=O)CN=C(S)c2ccc3ccccc3c2)cc1
IC50 [5]: > 100 µM (active)
EC50 (Streptococcus): > 150 µM (not active)
EC50 [22]: 3.01 µM (active)

Cc1cc(N=Nc2ccc(C)c(N=Nc3cc(C)c(N)cc3N)c2)c(N)cc1N
EC50 (cells [18]): > 67.5 µM (inactive)
EC50 [19]: > 67.5 µM (inactive)
EC50 [23]: > 50 µM (active)

CC(=O)Nc1cc2c3c(cccc3c1)-c1ccccc1-2
EC50 (Kallikrein-7): 8.84 µM (active)

Cc1[nH]c2ccccc2c1/C=N/Nc1nc(Nc2ccc(F)cc2)nc(N2CCOCC2)n1
IC50 [24]: 1.09 µM (active)
IC50 [25]: 51.2 µM (inactive)

COc1ccc(/C=N/NC2=NC(=O)C(c3ccccc3)S2)c(OC)c1 (stereo not drawn)
IC50 [26]: > 100 µM (active)
